What was measured:
[1] = biological target: T1, human B1R receptor (CHO K1 cells stably transfected with the human B1R gene) (Homo sapiens, UniProt P46663); assay: Functional study on the bradykinin receptor 1 (B1R), Ca2+ fluorescence (Fluo-4) FLIPR/Novostar assay, hB1R cells; type: cell-based; details: CHO-K1, read-out: % Inhibition (h-B1R) at 10 μM
T1 construct: expressed in transfected cells; host or cells: CHO K1 cells (Chinese hamster ovary), stably transfected
T1 sequence (P46663 1-353): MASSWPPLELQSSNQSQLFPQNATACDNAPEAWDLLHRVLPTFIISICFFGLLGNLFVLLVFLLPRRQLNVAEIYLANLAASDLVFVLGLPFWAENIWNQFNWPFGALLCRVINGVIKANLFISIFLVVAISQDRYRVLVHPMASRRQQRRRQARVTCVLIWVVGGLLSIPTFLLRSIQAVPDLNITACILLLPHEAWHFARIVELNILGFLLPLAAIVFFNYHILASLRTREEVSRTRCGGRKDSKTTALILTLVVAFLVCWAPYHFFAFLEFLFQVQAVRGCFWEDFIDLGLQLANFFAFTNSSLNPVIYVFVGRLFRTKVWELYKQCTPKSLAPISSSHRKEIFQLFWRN
In short: (§1)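 Ca2+ influx (Fluo-4, peak fluorescence, λex 488/λem 540 nm) was measured in CHO K1 lines expressing rat or human B1R. After a 10 μM test-compound pre-addition scoring % activation, cells received EC80 agonist: Des-Arg9-bradykinin for rat, Lys-Des-Arg9-bradykinin for human. Antagonism was expressed as % of maximum inhibition, with IC50 from varied concentrations.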

[2] = biological target: T2, B1R receptor of the rat (CHO K1 cells stably transfected with the B1R gene of the rat) (Rattus norvegicus, UniProt P97583); assay: Functional study on the bradykinin receptor 1 (B1R), Ca2+ fluorescence (Fluo-4) FLIPR/Novostar assay, rB1R cells; type: cell-based; details: for inhibition at 10 µM: CHO-K1, 10 μM, read-out: % Inhibition (r-B1R) at 10 μM
T2 construct: expressed in transfected cells; host or cells: CHO K1 cells (Chinese hamster ovary), stably transfected
T2 sequence (P97583 1-337): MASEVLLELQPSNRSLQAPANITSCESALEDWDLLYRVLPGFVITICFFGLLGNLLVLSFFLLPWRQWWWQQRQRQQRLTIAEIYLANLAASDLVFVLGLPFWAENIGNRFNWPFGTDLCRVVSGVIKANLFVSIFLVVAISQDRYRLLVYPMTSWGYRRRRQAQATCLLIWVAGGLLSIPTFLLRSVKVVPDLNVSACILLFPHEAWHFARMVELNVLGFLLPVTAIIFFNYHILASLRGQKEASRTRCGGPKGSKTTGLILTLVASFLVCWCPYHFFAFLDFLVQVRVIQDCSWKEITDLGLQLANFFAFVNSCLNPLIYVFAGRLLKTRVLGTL
In short: as §1

CN(C(=O)c1ccc2c(c1)C(NC(=O)c1cnccc1C(F)(F)F)CC2(C)C)C1CCN(c2ccncc2)CC1 (centres unmarked) [CC_H-12, N-[3,3-Dimethyl-6-[methyl-(1-pyridin-4-yl-piperidin-4-yl)-carbamoyl]-1,2-dihydro-inden-1-yl]-4-(trifluoromethyl)-pyridine-3-carboxylic acid amide]
inhibition at 10 µM [1]: 100% | inhibition at 10 µM [2]: 104%

CN(C(=O)c1ccc2c(c1)CCC2NC(=O)c1sccc1Cl)C1CCN(c2ccncc2)CC1 (centres unmarked) [CC_H-13, 3-Chloro-N-[5-[methyl-(1-pyridin-4-yl-piperidin-4-yl)-carbamoyl]-2,3-dihydro-1H-inden-1-yl]-thiophene-2-carboxylic acid amide]
inhibition at 10 µM [1]: 100% | inhibition at 10 µM [2]: 78%

CN(C(=O)c1ccc2c(c1)C(NC(=O)C1CCCCC1)CC2(C)C)C1CCN(c2ccncc2)CC1 (centres unmarked) [CC_H-14, 3-(Cyclohexanecarbonylamino)-N,1,1-trimethyl-N-(1-pyridin-4-yl-piperidin-4-yl)-2,3-dihydro-indene-5-carboxylic acid amide]
inhibition at 10 µM [1]: 99% | inhibition at 10 µM [2]: 104%

CN(C(=O)NC1CC(C)(C)c2ccc(C(=O)N(C)C3CCN(c4ccncc4)CC3)cc21)c1ccccc1Cl (centres unmarked) [CC_H-15, 3-[[(2-Chlorophenyl)-methyl-carbamoyl]amino]-N,1,1-trimethyl-N-(1-pyridin-4-yl-piperidin-4-yl)-2,3-dihydro-indene-5-carboxylic acid amide]
inhibition at 10 µM [1]: 99% | inhibition at 10 µM [2]: 101%

CN(C(=O)c1ccc2c(c1)C(NS(=O)(=O)c1c(Cl)cccc1C(F)(F)F)CCC2)C1CCN(c2ccncc2)CC1 (centres unmarked) [CC_H-16, 8-[[[2-Chloro-6-(trifluoromethyl)-phenyl]sulfonyl]amino]-N-methyl-N-(1-pyridin-4-yl-piperidin-4-yl)-5,6,7,8-tetrahydro-naphthalene-2-carboxylic acid amide]
inhibition at 10 µM [1]: 99% | inhibition at 10 µM [2]: 104%

CN(C(=O)c1ccc2c(c1)C(NC(=O)c1c(Cl)cccc1C(F)(F)F)CC2(C)C)C1CCN(c2ccncc2)CC1 (centres unmarked) [CC_H-17, 3-[[2-Chloro-6-(trifluoromethyl)-benzoyl]amino]-N,1,1-trimethyl-N-(1-pyridin-4-yl-piperidin-4-yl)-2,3-dihydro-indene-5-carboxylic acid amide]
inhibition at 10 µM [1]: 98% | % Inhibition (r-B1R) at 10 μM [2]: 104%

CN(C(=O)c1ccc2c(c1)C(NC(=O)CCC1CCCC1)CC2(C)C)C1CCN(c2ccncc2)CC1 (centres unmarked) [CC_H-18, 3-(3-Cyclopentyl-propanoylamino)-N,1,1-trimethyl-N-(1-pyridin-4-yl-piperidin-4-yl)-2,3-dihydro-indene-5-carboxylic acid amide]
inhibition at 10 µM [1]: 99% | inhibition at 10 µM [2]: 102%

CN(C(=O)c1ccc2c(c1)C(NC(=O)c1cccc(Cl)c1Cl)CC2(C)C)C1CCN(c2ccncc2)CC1 (centres unmarked) [CC_H-19, 3-[(2,3-Dichloro-benzoyl)amino]-N,1,1-trimethyl-N-(1-pyridin-4-yl-piperidin-4-yl)-2,3-dihydro-indene-5-carboxylic acid amide]
inhibition at 10 µM [1]: 100% | inhibition at 10 µM [2]: 100%

CN(C(=O)c1ccc2c(c1)C(NC(=O)c1sccc1Cl)CC2(C)C)C1CCN(c2ccncc2)CC1 (centres unmarked) [CC_H-20, 3-Chloro-N-[3,3-dimethyl-6-[methyl-(1-pyridin-4-yl-piperidin-4-yl)-carbamoyl]-1,2-dihydro-inden-1-yl]-thiophene-2-carboxylic acid amide]
inhibition at 10 µM [1]: 99% | inhibition at 10 µM [2]: 104%

CN(C(=O)c1ccc2c(c1)C(NC(=O)c1cc(F)ccc1Cl)CC2(C)C)C1CCN(c2ccncc2)CC1 (centres unmarked) [CC_H-21, 3-[(2-Chloro-5-fluoro-benzoyl)amino]-N,1,1-trimethyl-N-(1-pyridin-4-yl-piperidin-4-yl)-2,3-dihydro-indene-5-carboxylic acid amide]
inhibition at 10 µM [1]: 99% | % Inhibition (r-B1R) at 10 μM [2]: 104%

CN(C(=O)c1ccc2c(c1)C(NC(=O)c1cncnc1)CC2(C)C)C1CCN(c2ccncc2)CC1 (centres unmarked) [CC_H-22, N-[3,3-Dimethyl-6-[methyl-(1-pyridin-4-yl-piperidin-4-yl)-carbamoyl]-1,2-dihydro-inden-1-yl]-pyrimidine-5-carboxylic acid amide]
inhibition at 10 µM [1]: 97% | inhibition at 10 µM [2]: 90%

CN(C(=O)c1ccc2c(c1)C(NC(=O)c1ccccc1Cl)CC2(C)C)C1CCN(c2ccncc2)CC1 (centres unmarked) [CC_H-23, 3-[(2-Chloro-benzoyl)amino]-N,1,1-trimethyl-N-(1-pyridin-4-yl-piperidin-4-yl)-2,3-dihydro-indene-5-carboxylic acid amide]
inhibition at 10 µM [1]: 99% | inhibition at 10 µM [2]: 104%

CN(C(=O)c1ccc2c(c1)C(NC(=O)c1ccccc1Cl)CC2)C1CCN(c2ccncc2)CC1 (centres unmarked) [CC_H-24, 3-[(2-Chloro-benzoyl)amino]-N-methyl-N-(1-pyridin-4-yl-piperidin-4-yl)-2,3-dihydro-1H-indene-5-carboxylic acid amide]
inhibition at 10 µM [1]: 100% | inhibition at 10 µM [2]: 105%

CN(C(=O)c1ccc2c(c1)C(N(C)C(=O)c1cccc(Cl)c1Cl)CC2)C1CCN(c2ccncc2)CC1 (centres unmarked) [CC_H-25, 3-[(2,3-Dichloro-benzoyl)-methyl-amino]-N-methyl-N-(1-pyridin-4-yl-piperidin-4-yl)-2,3-dihydro-1H-indene-5-carboxylic acid amide]
inhibition at 10 µM [1]: 98% | inhibition at 10 µM [2]: 104%

CN(C(=O)c1ccc2c(c1)C(NC(=O)c1cc(F)ccc1Cl)CC2)C1CCN(c2ccncc2)CC1 (centres unmarked) [CC_H-26, 3-[(2-Chloro-5-fluoro-benzoyl)amino]-N-methyl-N-(1-pyridin-4-yl-piperidin-4-yl)-2,3-dihydro-1H-indene-5-carboxylic acid amide]
inhibition at 10 µM [1]: 100% | % Inhibition (r-B1R) at 10 μM [2]: 103%

CN(C(=O)c1ccc2c(c1)C(N(C)C(=O)c1cc(F)ccc1Cl)CC2)C1CCN(c2ccncc2)CC1 (centres unmarked) [CC_H-27, 3-[(2-Chloro-5-fluoro-benzoyl)-methyl-amino]-N-methyl-N-(1-pyridin-4-yl-piperidin-4-yl)-2,3-dihydro-1H-indene-5-carboxylic acid amide]
inhibition at 10 µM [1]: 100% | % Inhibition (r-B1R) at 10 μM [2]: 104%

CC(C)CC(=O)N(C)C1CCc2ccc(C(=O)N(C)C3CCN(c4ccncc4)CC3)cc21 (centres unmarked) [CC_H-28, N-Methyl-3-[methyl-(3-methyl-butanoyl)-amino]-N-(1-pyridin-4-yl-piperidin-4-yl)-2,3-dihydro-1H-indene-5-carboxylic acid amide]
inhibition at 10 µM [1]: 99% | inhibition at 10 µM [2]: 103%

CN(C(=O)c1ccc2c(c1)C(NC(=O)c1sccc1Cl)CC2)C1CCN(c2ccncc2)CC1 (centres unmarked) [CC_H-29, 3-Chloro-N-[6-[methyl-(1-pyridin-4-yl-piperidin-4-yl)-carbamoyl]-2,3-dihydro-1H-inden-1-yl]-thiophene-2-carboxylic acid amide]
inhibition at 10 µM [1]: 99% | inhibition at 10 µM [2]: 103%

CN(C(=O)c1ccc2c(c1)C(N(C)C(=O)c1sccc1Cl)CC2)C1CCN(c2ccncc2)CC1 (centres unmarked) [CC_H-30, 3-Chloro-N-methyl-N-[6-[methyl-(1-pyridin-4-yl-piperidin-4-yl)-carbamoyl]-2,3-dihydro-1H-inden-1-yl]-thiophene-2-carboxylic acid amide]
inhibition at 10 µM [1]: 99% | inhibition at 10 µM [2]: 104%

Source: patent US8680159B2, “Bradykinin 1 receptor modulating compounds” (Gruenenthal GmbH, priority 2010, dated 2014)
